# In patent US20100029643A1 (ASTRAZENECA AB, priority 2006, published 2010):
# Molecular target: T1, Edg-1/S1P1 receptor (Homo sapiens, UniProt P21453)
# T1 construct: expressed in transfected cells; host or cells: human osteogenic sarcoma U2OS cells: Edg-1 Transfluor U2OS WT Clone #37 (assay I), Edg-1 Transfluor U2OS Clone #3 (assay II)
# Assay: In vitro cell based receptor activation assay - Transfluor assay (assay I or II; beta-arrestin GFP relocalization after S1P stimulation)
# Conditions: for inhibition at 3.7 µM: at 3.70 μM (titrated from top concentration 100 μM); for inhibition at 3.5 µM: at 3.50 μM (titrated from top concentration 10 μM)
# How it was run: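 U2OS cells overexpressing S1P1 with a beta-arrestin-GFP construct were pre-incubated with compound for 15 min at room temperature, then stimulated with S1P for 45 min at 37 °C. In assay I, final S1P was 375 nM or 750 nM and compound was a 9-point 3-fold series from 100 μM, in 1% DMSO. Cells were fixed and Hoechst-stained, GFP relocalization was imaged, and EC50 values were fitted.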
# T1 sequence (P21453 whole entry): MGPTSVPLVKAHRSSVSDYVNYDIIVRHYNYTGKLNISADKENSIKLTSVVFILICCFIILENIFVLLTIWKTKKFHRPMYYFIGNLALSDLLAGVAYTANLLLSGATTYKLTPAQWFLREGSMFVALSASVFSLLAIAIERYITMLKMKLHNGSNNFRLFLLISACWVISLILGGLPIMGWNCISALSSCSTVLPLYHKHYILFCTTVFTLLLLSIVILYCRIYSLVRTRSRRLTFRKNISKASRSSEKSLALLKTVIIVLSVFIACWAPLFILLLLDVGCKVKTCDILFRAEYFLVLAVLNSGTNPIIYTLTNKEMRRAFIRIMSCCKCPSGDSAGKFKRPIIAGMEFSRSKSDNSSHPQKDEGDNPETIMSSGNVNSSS
SMILES,inhibition at 3.7 µM,inhibition at 3.5 µM,further results
"CCn1c([C@@H](C)NS(=O)(=O)c2ccc(Cl)cc2)nc2cc(F)c(F)c(F)c21 [Example 91, (R)-4-Chloro-N-[1-(1-ethyl-5,6,7-trifluoro-1H-benzoimidazol-2-yl)-ethyl]-benzenesulfonamide]",,,inhibition at 1 µM (at 1 μM (titrated with 3.50 μM as top concentration)): 91.8%
"CCn1c([C@@H](C)NS(=O)(=O)c2ccc(Cl)cc2)nc2cc3c(cc21)OCCO3 [Example 62, 4-Chloro-N-[(1R)-1-(1-ethyl-6,7-dihydro-1H-[1,4]dioxino-[2,3-f]benzimidazol-2-yl)-ethyl]benzenesulfonamide]",52.2%,,
"CCn1c([C@@H](C)NS(=O)(=O)c2ccc(Cl)cc2)nc2cc(C)c(C)cc21 [Example 24, 4-Chloro-N-[(1R)-1-(1-ethyl-5,6-dimethyl-1H-benzimidazol-2-yl)ethyl]benzenesulfonamide]",,73%,
"CCOc1ccc(S(=O)(=O)N[C@H](C)c2nc3ccc(C(F)(F)F)cc3n2CC)cc1 [Example 157, (R)-4-Ethoxy-N-(1-(1-ethyl-6-(trifluoromethyl)-1H-benzo[d]imidazol-2-yl)ethyl)benzenesulfonamide]",,88.4%,
"CCn1c(C(C)NS(=O)(=O)c2ccc(Cl)cc2)nc2cccnc21 (stereo not shown) [Example 15, 4-Chloro-N-[1-(3-ethyl-3H-imidazo[4,5-b]pyridin-2-yl)ethyl]benzenesulfonamide]",61.5%,,
"CCn1c([C@@H](C)NS(=O)(=O)c2ccc(Cl)cc2)nc2cccc(C)c21 [Example 66, 4-Chloro-N-[(1R)-1-(1-ethyl-7-methyl-1H-benzimidazol-2-yl)ethyl]benzenesulfonamide]",94.6%,,
"CCn1c([C@@H](C)NS(=O)(=O)c2ccc(Cl)cc2)nc2ccc(C)cc21 [Example 89, 4-Chloro-N-[(1R)-1-(1-ethyl-6-methyl-1H-benzimidazol-2-yl)ethyl]benzenesulfonamide]",,90.7%,
"CCn1c([C@@H](C)NS(=O)(=O)c2ccnc(C)c2)nc2ccc(C(F)(F)F)cc21 [Example 161, (R)-N-(1-(1-Ethyl-6-(trifluoromethyl)-1H-benzo[d]imidazol-2-yl)ethyl)-2-methylpyridine-4-sulfonamide]",,91.4%,
"CCn1c(C(C)(C)NS(=O)(=O)c2ccccc2)nc2ccc(C(F)(F)F)cc21 [Example 139, N-{(1R)-1-[1-Ethyl-6-(trifluoromethyl)-1H-benzimidazol-2-yl]-1-methyl-ethyl}benzenesulfonamide]",,88.3%,
"CCn1c([C@@H](C)NS(=O)(=O)c2ccc(OC)c(OC)c2)nc2ccc(C(F)(F)F)cc21 [Example 124, N-{(1R)-1-[1-Ethyl-6-(trifluoromethyl)-1H-benz-imidazol-2-yl]ethyl}-3,4-di-methoxybenzenesulfonamide]",,79.4%,
CCn1c([C@@H](C)NS(=O)(=O)c2ccc(C(N)=O)nc2)nc2cnc(OC)cc21 [Example 152],,91.8%,
"CCn1c(C(C)(C)NS(=O)(=O)c2ccc(F)cc2)nc2ccc(C(F)(F)F)cc21 [Example 137, N-[1-(1-Ethyl-6-trifluoromethyl-1H-benzoimidazol-2-yl)-1-methyl-ethyl]-4-fluoro-benzenesulfonamide]",,88.8%,
"CCn1c([C@@H](C)NS(=O)(=O)c2ccc(Cl)cc2)nc2ccc(CN(C)C)cc21 [Example 74, 4-Chloro-N-((1R)-1-{6-[(dimethylamino)methyl]-1-ethyl-1H-benzimidazol-2-yl}ethyl)benzenesulfonamide]",30.4%,,
